# Measurements taken from ChEMBL document CHEMBL3400003, “Isoindoline-1,3-dione derivatives targeting cholinesterases: design, synthesis and biological evaluation of potential anti-Alzheimer's agents” (Bioorg Med Chem, 2015).
# How the values were obtained:
# [1] = biological target: Acetylcholinesterase (Electrophorus electricus, UniProt O42275)
# [2] = biological target: Acetylcholinesterase (Homo sapiens, UniProt P22303)
# [3] = biological target: Cholinesterase (Equus caballus, UniProt P81908)
# [4] = biological target: Amyloid-beta precursor protein (Homo sapiens) (UniProt P05067); assay: Inhibition of recombinant human HFIP-pretreated Amyloid beta (1 to 42) (unknown origin) self-induced aggregation at 10 uM after 24 hrs by thioflavin T-based fluorometric assay
# [5] = PAMPA
# [6] = biological target: Cholinesterase (Equus caballus) (UniProt P81908); assay: Inhibition of BuChE in horse serum at 10 uM pre-incubated for 5 mins before addition of butyrylthiocholine iodide substrate by Ellman's assay
# Cholinesterase (Equus caballus), sequence (P81908 whole entry): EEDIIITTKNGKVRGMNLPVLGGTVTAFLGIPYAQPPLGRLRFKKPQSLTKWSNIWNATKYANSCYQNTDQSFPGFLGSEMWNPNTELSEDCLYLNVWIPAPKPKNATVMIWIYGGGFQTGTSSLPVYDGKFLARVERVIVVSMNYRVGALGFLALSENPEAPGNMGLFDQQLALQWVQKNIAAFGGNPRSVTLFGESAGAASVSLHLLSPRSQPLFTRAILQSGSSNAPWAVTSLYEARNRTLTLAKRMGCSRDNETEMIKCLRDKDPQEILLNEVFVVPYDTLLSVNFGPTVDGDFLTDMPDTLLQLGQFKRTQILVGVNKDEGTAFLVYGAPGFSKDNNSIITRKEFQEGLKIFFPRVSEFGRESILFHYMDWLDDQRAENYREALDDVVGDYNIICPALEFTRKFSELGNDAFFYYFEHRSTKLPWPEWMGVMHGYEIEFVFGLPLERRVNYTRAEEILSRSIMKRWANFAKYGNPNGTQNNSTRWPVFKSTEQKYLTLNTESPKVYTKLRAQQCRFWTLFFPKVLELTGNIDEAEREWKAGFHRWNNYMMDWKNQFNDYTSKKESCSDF
# Acetylcholinesterase (Electrophorus electricus, UniProt O42275), sequence (O42275 whole entry): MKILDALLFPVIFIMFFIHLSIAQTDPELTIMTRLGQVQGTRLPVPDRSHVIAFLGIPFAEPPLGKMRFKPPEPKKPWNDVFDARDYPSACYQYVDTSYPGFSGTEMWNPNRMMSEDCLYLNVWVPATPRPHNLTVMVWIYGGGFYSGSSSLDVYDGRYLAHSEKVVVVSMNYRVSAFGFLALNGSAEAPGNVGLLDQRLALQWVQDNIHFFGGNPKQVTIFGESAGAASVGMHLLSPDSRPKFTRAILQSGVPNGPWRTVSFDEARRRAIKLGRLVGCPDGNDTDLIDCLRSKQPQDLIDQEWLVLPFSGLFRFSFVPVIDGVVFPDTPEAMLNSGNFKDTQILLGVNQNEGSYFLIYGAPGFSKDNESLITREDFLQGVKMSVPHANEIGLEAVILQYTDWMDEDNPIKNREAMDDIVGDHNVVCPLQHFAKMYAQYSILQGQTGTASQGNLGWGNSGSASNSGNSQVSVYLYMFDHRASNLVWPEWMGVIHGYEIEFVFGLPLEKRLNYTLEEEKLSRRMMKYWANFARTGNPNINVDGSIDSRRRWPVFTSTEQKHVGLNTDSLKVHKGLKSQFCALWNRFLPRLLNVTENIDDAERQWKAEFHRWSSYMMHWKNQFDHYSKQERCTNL
# Cholinesterase, sequence (P81908 whole entry): as the sequence (P81908 whole entry) above
# Amyloid-beta precursor protein (Homo sapiens), sequence (P05067 whole entry): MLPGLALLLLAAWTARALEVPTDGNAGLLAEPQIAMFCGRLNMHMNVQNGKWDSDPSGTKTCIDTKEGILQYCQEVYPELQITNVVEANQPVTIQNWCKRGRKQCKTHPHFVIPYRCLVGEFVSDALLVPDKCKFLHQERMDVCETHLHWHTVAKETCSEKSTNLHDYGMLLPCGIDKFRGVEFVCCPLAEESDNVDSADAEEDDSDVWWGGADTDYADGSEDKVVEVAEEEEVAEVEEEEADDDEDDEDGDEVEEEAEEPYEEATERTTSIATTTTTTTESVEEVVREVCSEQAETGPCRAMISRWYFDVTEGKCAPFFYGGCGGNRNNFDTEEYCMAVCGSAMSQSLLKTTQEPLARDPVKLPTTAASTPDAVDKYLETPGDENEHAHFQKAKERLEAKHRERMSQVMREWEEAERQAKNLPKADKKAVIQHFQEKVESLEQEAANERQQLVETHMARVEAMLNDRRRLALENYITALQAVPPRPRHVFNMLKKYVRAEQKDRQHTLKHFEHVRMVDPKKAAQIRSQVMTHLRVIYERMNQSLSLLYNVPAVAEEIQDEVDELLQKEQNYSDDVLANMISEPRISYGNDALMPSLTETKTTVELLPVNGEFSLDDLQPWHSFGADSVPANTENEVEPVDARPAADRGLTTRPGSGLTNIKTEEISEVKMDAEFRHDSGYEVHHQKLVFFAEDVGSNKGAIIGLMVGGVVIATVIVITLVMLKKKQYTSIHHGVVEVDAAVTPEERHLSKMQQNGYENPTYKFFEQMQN
# Acetylcholinesterase (Homo sapiens, UniProt P22303), sequence (P22303 whole entry): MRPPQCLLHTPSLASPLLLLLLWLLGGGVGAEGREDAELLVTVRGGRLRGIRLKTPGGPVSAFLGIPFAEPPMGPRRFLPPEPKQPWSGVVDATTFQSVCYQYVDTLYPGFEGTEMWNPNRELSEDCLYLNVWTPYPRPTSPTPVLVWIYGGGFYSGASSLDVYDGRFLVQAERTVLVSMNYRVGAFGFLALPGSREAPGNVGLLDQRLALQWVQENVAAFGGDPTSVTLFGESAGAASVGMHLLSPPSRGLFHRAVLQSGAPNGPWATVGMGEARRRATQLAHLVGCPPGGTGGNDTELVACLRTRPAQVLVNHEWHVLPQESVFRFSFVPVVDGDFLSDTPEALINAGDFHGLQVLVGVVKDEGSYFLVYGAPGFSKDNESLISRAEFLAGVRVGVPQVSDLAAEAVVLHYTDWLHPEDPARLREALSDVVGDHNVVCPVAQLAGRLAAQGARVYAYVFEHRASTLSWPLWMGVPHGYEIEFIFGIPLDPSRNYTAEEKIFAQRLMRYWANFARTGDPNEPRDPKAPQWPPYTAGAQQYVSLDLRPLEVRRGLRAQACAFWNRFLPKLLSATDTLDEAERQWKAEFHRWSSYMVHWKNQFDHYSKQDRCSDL
Compound,IC50 [1],IC50 [2],IC50 [3],inhibition [4],log Pe [5],inhibition [6]
CN(CCCCCCCN1C(=O)c2ccccc2C1=O)Cc1cccc(Cl)c1,0.5 µM,1.3 µM,1.5 µM,< 5%,–,–
CN(CCCCCCCCN1C(=O)c2ccccc2C1=O)Cc1cccc(Cl)c1,1.36 µM,1.04 µM,0.909 µM,< 5%,–,–
CC(=O)[C@H]1CC[C@H]2[C@@H]3CCC4=CC(=O)CC[C@]4(C)[C@H]3CC[C@]12C [PROGESTERONE],–,–,–,–,-5.1,–
CN(CCCCCCN1C(=O)c2ccccc2C1=O)Cc1ccccc1,0.089 µM,1.83 µM,–,< 5%,–,< 50%
O=C1c2ccccc2C(=O)N1Cc1ccc(CNCc2ccccc2F)cc1,2.58 µM,–,2.9 µM,< 5%,–,–
CN(CCCCCCCN1C(=O)c2ccccc2C1=O)Cc1ccccc1F,0.525 µM,0.625 µM,7.16 µM,< 5%,–,–
O=C1c2ccccc2C(=O)N1Cc1ccc(CNCc2ccccc2)cc1,–,–,2.08 µM,< 5%,–,–
O=C1c2ccccc2C(=O)N1Cc1ccc(CNCc2cccc(Cl)c2)cc1,6.31 µM,–,1.32 µM,< 5%,–,–
CN(CCCCN1C(=O)c2ccccc2C1=O)Cc1cccc(Cl)c1,1.43 µM,–,–,< 5%,–,< 50%
CN(CCCCCCN1C(=O)c2ccccc2C1=O)Cc1ccccc1F,0.075 µM,1.99 µM,10.5 µM,< 5%,–,–
CN(CCCCCCCCN1C(=O)c2ccccc2C1=O)Cc1ccccc1F,0.661 µM,0.644 µM,4.68 µM,< 5%,–,–
CN(CCCCN1C(=O)c2ccccc2C1=O)Cc1ccccc1F,1.52 µM,–,–,< 5%,–,< 50%
CN(CCCCCCN1C(=O)c2ccccc2C1=O)Cc1cccc(Cl)c1,0.095 µM,1.19 µM,2.44 µM,< 5%,–,–
CN(CCCCCN1C(=O)c2ccccc2C1=O)Cc1ccccc1,0.08 µM,0.361 µM,–,< 5%,–,< 50%
CN(CCCCN1C(=O)c2ccccc2C1=O)Cc1ccccc1,2.33 µM,–,–,< 5%,–,< 50%
CN(CCCCCN1C(=O)c2ccccc2C1=O)Cc1ccccc1F,0.067 µM,0.525 µM,–,< 5%,–,< 50%
CN(CCCCCN1C(=O)c2ccccc2C1=O)Cc1cccc(Cl)c1,0.11 µM,0.537 µM,5.83 µM,< 5%,–,–
CN(CCCCCCCN1C(=O)c2ccccc2C1=O)Cc1ccccc1,0.172 µM,0.997 µM,1.01 µM,< 5%,–,–
CN(CCCCCCCCN1C(=O)c2ccccc2C1=O)Cc1ccccc1,0.139 µM,0.86 µM,0.543 µM,< 5%,–,–
